# Test results taken from paper PMC4118284 (Leukemia, 2012).
# Like-named read-outs stand apart in the source and are kept apart here.
# Experiments:
# [1] = system: newly diagnosed patients with FLT3-mutant AML; conditions: sorafenib plus induction chemotherapy; 15 newly diagnosed patients with FLT3-mutant AML; cited from earlier work
# [2] = system: newly diagnosed patients with acute myeloid leukemia (AML); conditions: 50 mg twice daily; either arm
# [3] = system: patients with FLT3-mutant and FLT3-wild-type AML; conditions: single agent, cited from earlier work; for Patients with ≥ 50% peripheral blood blast reduction: 75 mg three times daily or 50 mg or 100 mg twice daily
# [4] = Plasma concentrations of midostaurin and metabolites; conditions: for Plasma concentration, Max / Plasma concentration, Median / Plasma concentration, Min: 50 mg BID
# [5] = system: newly diagnosed patients with acute myeloid leukemia (AML); test: Phase 1b trial: efficacy; type: in vivo, human
# [6] = Concomitant (days 1-7 and 15-21), Induction cycle 1, day 1
# [7] = Concomitant, First consolidation cycle, day 1.5
# [8] = Concomitant, First consolidation cycle, day 15.5
# [9] = Concomitant, First consolidation cycle, day 29.5
# [10] = Concomitant, Induction cycle 1, Day 1 (+ 2 h)
# [11] = Concomitant, Induction cycle 1, Day 1 (+ 4 h)
# [12] = Concomitant, Induction cycle 1, day 2
# [13] = Concomitant, Induction cycle 1, day 4
# [14] = Concomitant, Induction cycle 1, day 15 (+ 2 h)
# [15] = Concomitant, Induction cycle 1, day 15 (+ 4 h)
# [16] = Sequential (days 8-21), Induction cycle 1, day 8
# [17] = Sequential, First consolidation cycle, day 1.5
# [18] = Sequential, First consolidation cycle, day 15.5
# [19] = Sequential, First consolidation cycle, day 29.5
# [20] = Sequential, Induction cycle 1, day 8 (+ 2 h)
# [21] = Sequential, Induction cycle 1, day 8 (+ 4 h)
# [22] = Sequential, Induction cycle 1, day 9
# [23] = Sequential, Induction cycle 1, day 15
# [24] = Sequential, Induction cycle 1, day 22.5
# [25] = Sequential, Induction cycle 1, day 29.5
smiles,measurement,setting,value
CNC(=O)c1cc(Oc2ccc(NC(=O)Nc3ccc(Cl)c(C(F)(F)F)c3)cc2)ccn1 [Sorafenib],CR rate,[1],93%
"CO[C@@H]1[C@H](N(C)C(=O)c2ccccc2)C[C@H]2O[C@]1(C)n1c3ccccc3c3c4c(c5c6ccccc6n2c5c31)C(=O)NC4 [midostaurin, Midostaurin]",Deaths on treatment or within 28 days of the last dose of study drug,[2],No deaths
same,Patients with ≥ 50% peripheral blood blast reduction,[3]; FLT3-mutant (n = 55),70%
same,Patients with ≥ 50% peripheral blood blast reduction,[3]; FLT3-wild-type (n = 60),42%
same,Complete remissions (CRs),[3],not observed
same,"Plasma concentration, Max",[4]; [6],LLOQ
same,"Plasma concentration, Median",[4]; [6],LLOQ
same,"Plasma concentration, Min",[4]; [6],LLOQ
same,"Plasma concentration, Max",[4]; [7],LLOQ
same,"Plasma concentration, Median",[4]; [7],LLOQ
same,"Plasma concentration, Min",[4]; [7],LLOQ
same,"Plasma concentration, Max",[4]; [8],1040 ng/mL
same,"Plasma concentration, Min",[4]; [8],LLOQ
same,"Plasma concentration, Max",[4]; [9],83.8 ng/mL
same,"Plasma concentration, Median",[4]; [9],LLOQ
same,"Plasma concentration, Min",[4]; [9],LLOQ
same,"Plasma concentration, Max",[4]; [10],2300 ng/mL
same,"Plasma concentration, Median",[4]; [10],1170 ng/mL
same,"Plasma concentration, Min",[4]; [10],355 ng/mL
same,"Plasma concentration, Max",[4]; [11],3380 ng/mL
same,"Plasma concentration, Median",[4]; [11],1010 ng/mL
same,"Plasma concentration, Min",[4]; [11],630 ng/mL
same,"Plasma concentration, Max",[4]; [12],4980 ng/mL
same,"Plasma concentration, Median",[4]; [12],1490 ng/mL
same,"Plasma concentration, Min",[4]; [12],LLOQ
same,"Plasma concentration, Max",[4]; [13],8710 ng/mL
same,"Plasma concentration, Median",[4]; [13],2355 ng/mL
same,"Plasma concentration, Min",[4]; [13],1680 ng/mL
same,"Plasma concentration, Max",[4]; [14],7300 ng/mL
same,"Plasma concentration, Median",[4]; [14],1870 ng/mL
same,"Plasma concentration, Min",[4]; [14],87.1 ng/mL
same,"Plasma concentration, Max",[4]; [15],7120 ng/mL
same,"Plasma concentration, Median",[4]; [15],1420 ng/mL
same,"Plasma concentration, Min",[4]; [15],96.3 ng/mL
same,"Plasma concentration, Min","[4]; Concomitant, Induction cycle 1, day 22.5",LLOQ
same,"Plasma concentration, Min","[4]; Concomitant, Induction cycle 1, day 29.5",LLOQ
same,"Plasma concentration, Max",[4]; [16],LLOQ
same,"Plasma concentration, Median",[4]; [16],LLOQ
same,"Plasma concentration, Min",[4]; [16],LLOQ
same,"Plasma concentration, Max",[4]; [17],91.2 ng/mL
same,"Plasma concentration, Median",[4]; [17],LLOQ
same,"Plasma concentration, Min",[4]; [17],LLOQ
same,"Plasma concentration, Max",[4]; [18],3790 ng/mL
same,"Plasma concentration, Median",[4]; [18],1330 ng/mL
same,"Plasma concentration, Min",[4]; [18],635 ng/mL
same,"Plasma concentration, Max",[4]; [19],4000 ng/mL
same,"Plasma concentration, Min",[4]; [19],LLOQ
same,"Plasma concentration, Max",[4]; [20],2880 ng/mL
same,"Plasma concentration, Median",[4]; [20],1495 ng/mL
same,"Plasma concentration, Min",[4]; [20],460 ng/mL
same,"Plasma concentration, Max",[4]; [21],3660 ng/mL
same,"Plasma concentration, Median",[4]; [21],1585 ng/mL
same,"Plasma concentration, Min",[4]; [21],635 ng/mL
same,"Plasma concentration, Max",[4]; [22],3290 ng/mL
same,"Plasma concentration, Median",[4]; [22],1680 ng/mL
same,"Plasma concentration, Min",[4]; [22],922 ng/mL
same,"Plasma concentration, Max",[4]; [23],17100 ng/mL
same,"Plasma concentration, Median",[4]; [23],3660 ng/mL
same,"Plasma concentration, Min",[4]; [23],1290 ng/mL
same,"Plasma concentration, Max",[4]; [24],19200 ng/mL
same,"Plasma concentration, Median",[4]; [24],2755 ng/mL
same,"Plasma concentration, Min",[4]; [24],904 ng/mL
same,"Plasma concentration, Max",[4]; [25],4970 ng/mL
same,"Plasma concentration, Median",[4]; [25],57.2 ng/mL
same,Trough concentrations during off-treatment periods,[4]; midostaurin 50 mg twice daily,low or undetectable levels
same,Kaplan-Meier OS probability,"[5]; 50 mg twice daily, FLT3-mutant AML, 1 year",0.85
same,Kaplan-Meier OS probability,"[5]; 50 mg twice daily, FLT3-mutant AML, 2 years",0.62
same,Complete remission (CR) rate,"[5]; 50 mg twice daily, FLT3-mutant, 12 of 13 patients",92%
same,Kaplan-Meier OS probability,"[5]; 50 mg twice daily, FLT3-wild-type AML, 1 year",0.78
same,Kaplan-Meier OS probability,"[5]; 50 mg twice daily, FLT3-wild-type AML, 2 years",0.52
same,Complete remission (CR) rate,"[5]; 50 mg twice daily, FLT3-wild-type, 20 of 27 patients",74%
same,Complete remission (CR) rate,"[5]; 50 mg twice daily, concomitant group, 16 of 20 patients",80%
same,Patients who have died,"[5]; 50 mg twice daily, of four patients with TKD mutations",none
same,Complete remission (CR) rate,"[5]; 50 mg twice daily, sequential group, 16 of 20 patients",80%
same,Complete remission rate,"[5]; 100 mg twice daily (dose schedules I and II), 13 of 29 patients",45%
same,Patients surviving more than 4 years,"[5]; 100 mg twice daily, FLT3-mutant blasts, two patients",33%
same,Complete remission rate,"[5]; 100 mg twice daily, FLT3-wild-type blasts, 8 of 23",35%
same,Patients surviving more than 4 years,"[5]; 100 mg twice daily, FLT3-wild-type blasts, nine patients",39%
